Several values for one entry are separate records, joined by “and”; a condition that tells them apart may be missing. Identical values can stand only once. Inconclusive results and toxic doses are left out. Rule as the data show it: active = T/C of 150% or more; inactive = T/C below 125%.
System: L1210 leukemia ip in BDF1 mice, survival T/C
Assay: NCI In Vivo Anticancer Drug Screen. Data for tumor model L1210 Leukemia (intraperitoneal) in B6D2F1 (BDF1) mice
Settings: higher = longer survival
Outline: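 Mice bearing the transplanted tumor received compound or vehicle. Survival of the treated group was divided by that of the vehicle-treated control group to give the ratio.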

[1] = endpoint: mean survival time, dose: 100.0 mg/kg/injection, schedule: Q01DX001 (ip), vehicle: saline
[2] = endpoint: mean survival time, dose: 200.0 mg/kg/injection, schedule: Q01DX001 (ip), vehicle: saline
[3] = endpoint: mean survival time, dose: 400.0 mg/kg/injection, schedule: Q01DX001 (ip), vehicle: saline

Measured: T/C

CCCCCCCCCCCCCCCC(=O)OCC1OC(n2ccc(N)nc2=O)C(O)C1O (centres undefined)
inactive: endpoint: mean survival time, dose: 24.0 mg/kg/injection, schedule: Q01DX009 (oral), vehicle: saline with Tween-80 119 % of control | endpoint: mean survival time, dose: 36.0 mg/kg/injection, schedule: Q01DX009 (oral), vehicle: saline with Tween-80 113 % of control | endpoint: mean survival time, dose: 50.0 mg/kg/injection, schedule: Q01DX009 (ip), vehicle: saline 115 % of control | endpoint: mean survival time, dose: 64.0 mg/kg/injection, schedule: Q04DX003 (oral), vehicle: saline with Tween-80 101 % of control | endpoint: mean survival time, dose: 98.0 mg/kg/injection, schedule: Q04DX003 (oral), vehicle: saline with Tween-80 106 % of control | endpoint: mean survival time, dose: 100.0 mg/kg/injection, schedule: Q01DX009 (ip), vehicle: saline 96 % of control | endpoint: mean survival time, dose: 140.0 mg/kg/injection, schedule: Q01DX001 (oral), vehicle: saline with Tween-80 98 % of control | endpoint: mean survival time, dose: 146.0 mg/kg/injection, schedule: Q04DX003 (oral), vehicle: saline with Tween-80 106 % of control | endpoint: mean survival time, dose: 214.0 mg/kg/injection, schedule: Q01DX001 (oral), vehicle: saline with Tween-80 97 % of control | endpoint: mean survival time, dose: 220.0 mg/kg/injection, schedule: Q04DX003 (oral), vehicle: saline with Tween-80 104 % of control | endpoint: mean survival time, dose: 320.0 mg/kg/injection, schedule: Q01DX001 (oral), vehicle: saline with Tween-80 108 % of control | endpoint: mean survival time, dose: 480.0 mg/kg/injection, schedule: Q01DX001 (oral), vehicle: saline with Tween-80 101 % of control | endpoint: median survival time, dose: 300.0 mg/kg/injection, schedule: Q01DX001 (ip), vehicle: none 98 % of control | endpoint: median survival time, dose: 300.0 mg/kg/injection, schedule: Q01DX001 (ip), vehicle: saline 94 % of control
active: endpoint: mean survival time, dose: 5.0 mg/kg/injection, schedule: Q01DX005 (ip), vehicle: other 150 % of control | endpoint: mean survival time, dose: 6.0 mg/kg/injection, schedule: Q01DX009 (ip), vehicle: saline with Tween-80 200 % of control | endpoint: mean survival time, dose: 8.8 mg/kg/injection, schedule: Q01DX009 (ip), vehicle: saline with Tween-80 210 % of control | endpoint: mean survival time, dose: 10.0 mg/kg/injection, schedule: Q01DX005 (ip), vehicle: other 182 % of control and 183 % of control and 198 % of control | endpoint: mean survival time, dose: 10.0 mg/kg/injection, schedule: Q06HX008 (ip), vehicle: other 236 % of control | endpoint: mean survival time, dose: 12.0 mg/kg/injection, schedule: Q01DX009 (ip), vehicle: saline with Tween-80 242 % of control | endpoint: mean survival time, dose: 12.5 mg/kg/injection, schedule: Q01DX001 (ip), vehicle: saline 153 % of control | endpoint: mean survival time, dose: 13.0 mg/kg/injection, schedule: Q01DX009 (ip), vehicle: saline with Tween-80 244 % of control (2×) and 260 % of control | endpoint: mean survival time, dose: 15.0 mg/kg/injection, schedule: Q01DX005 (ip), vehicle: other 210 % of control and 231 % of control and 237 % of control | endpoint: mean survival time, dose: 15.0 mg/kg/injection, schedule: Q01DX008 (ip), vehicle: other 226 % of control | endpoint: mean survival time, dose: 15.0 mg/kg/injection, schedule: Q12HX008 (ip), vehicle: other 292 % of control | endpoint: mean survival time, dose: 16.0 mg/kg/injection, schedule: Q06HX008 (ip), vehicle: other 267 % of control | endpoint: mean survival time, dose: 20.0 mg/kg/injection, schedule: Q01DX005 (ip), vehicle: other 220 % of control and 224 % of control and 245 % of control | endpoint: mean survival time, dose: 20.0 mg/kg/injection, schedule: Q01DX008 (ip), vehicle: other 264 % of control | endpoint: mean survival time, dose: 25.0 mg/kg/injection, schedule: Q01DX001 (ip), vehicle: other 153 % of control and 154 % of control and 174 % of control | endpoint: mean survival time, dose: 25.0 mg/kg/injection, schedule: Q01DX001 (ip), vehicle: saline with Tween-80 196 % of control | endpoint: mean survival time, dose: 25.0 mg/kg/injection, schedule: Q01DX001 (ip), vehicle: saline 165 % of control | endpoint: mean survival time, dose: 25.0 mg/kg/injection, schedule: Q01DX005 (ip), vehicle: other 243 % of control and 258 % of control and 273 % of control | endpoint: mean survival time, dose: 25.0 mg/kg/injection, schedule: Q01DX008 (ip), vehicle: other 267 % of control | endpoint: mean survival time, dose: 25.0 mg/kg/injection, schedule: Q02DX008 (ip), vehicle: other 270 % of control | endpoint: mean survival time, dose: 25.0 mg/kg/injection, schedule: Q04DX008 (ip), vehicle: other 245 % of control and 252 % of control | endpoint: mean survival time, dose: 25.0 mg/kg/injection, schedule: Q06DX008 (ip), vehicle: other 165 % of control and 187 % of control | endpoint: mean survival time, dose: 25.0 mg/kg/injection, schedule: Q08DX008 (ip), vehicle: other 178 % of control | endpoint: mean survival time, dose: 27.0 mg/kg/injection, schedule: Q02DX005 (ip), vehicle: saline with Tween-80 255 % of control | endpoint: mean survival time, dose: 30.0 mg/kg/injection, schedule: Q01DX009 (ip), vehicle: saline with Tween-80 270 % of control | endpoint: mean survival time, dose: 30.0 mg/kg/injection, schedule: Q03HX008 (ip), vehicle: other 192 % of control | endpoint: mean survival time, dose: 32.0 mg/kg/injection, schedule: Q04DX003 (ip), vehicle: saline with Tween-80 198 % of control | endpoint: mean survival time, dose: 35.0 mg/kg/injection, schedule: Q01DX005 (ip), vehicle: other 254 % of control and 255 % of control | endpoint: mean survival time, dose: 40.0 mg/kg/injection, schedule: Q03HX008 (ip), vehicle: other 151 % of control and 167 % of control | endpoint: mean survival time, dose: 49.0 mg/kg/injection, schedule: Q04DX003 (ip), vehicle: saline with Tween-80 271 % of control | endpoint: mean survival time, dose: 50.0 mg/kg/injection, schedule: Q01DX001 (ip), vehicle: other 173 % of control and 187 % of control and 211 % of control | endpoint: mean survival time, dose: 50.0 mg/kg/injection, schedule: Q01DX001 (ip), vehicle: saline with Tween-80 165 % of control | endpoint: mean survival time, dose: 50.0 mg/kg/injection, schedule: Q01DX001 (ip), vehicle: saline 186 % of control and 207 % of control | endpoint: mean survival time, dose: 50.0 mg/kg/injection, schedule: Q04DX008 (ip), vehicle: other 216 % of control | endpoint: mean survival time, dose: 50.0 mg/kg/injection, schedule: Q06DX008 (ip), vehicle: other 245 % of control and 283 % of control | endpoint: mean survival time, dose: 50.0 mg/kg/injection, schedule: Q08DX008 (ip), vehicle: other 283 % of control and 293 % of control | endpoint: mean survival time, dose: 60.0 mg/kg/injection, schedule: Q02DX005 (ip), vehicle: saline with Tween-80 182 % of control | endpoint: mean survival time, dose: 67.0 mg/kg/injection, schedule: Q01DX001 (ip), vehicle: saline with Tween-80 162 % of control and 220 % of control | endpoint: mean survival time, dose: 70.0 mg/kg/injection, schedule: Q01DX001 (ip), vehicle: saline with Tween-80 239 % of control | endpoint: mean survival time, dose: 75.0 mg/kg/injection, schedule: Q02DX004 (ip), vehicle: other 244 % of control | endpoint: mean survival time, dose: 90.0 mg/kg/injection, schedule: Q02DX004 (ip), vehicle: other 283 % of control | endpoint: mean survival time, dose: 100.0 mg/kg/injection, schedule: Q01DX001 (ip), vehicle: other 220 % of control and 253 % of control and 281 % of control | [1] 276 % of control and 293 % of control | endpoint: mean survival time, dose: 100.0 mg/kg/injection, schedule: Q02DX008 (ip), vehicle: other 194 % of control | endpoint: mean survival time, dose: 100.0 mg/kg/injection, schedule: Q04DX008 (ip), vehicle: other 286 % of control | endpoint: mean survival time, dose: 120.0 mg/kg/injection, schedule: Q03DX004 (ip), vehicle: other 235 % of control | endpoint: mean survival time, dose: 150.0 mg/kg/injection, schedule: Q04DX008 (ip), vehicle: other 233 % of control and 235 % of control | endpoint: mean survival time, dose: 150.0 mg/kg/injection, schedule: Q08DX008 (ip), vehicle: other 291 % of control | [2] 283 % of control | endpoint: mean survival time, dose: 225.0 mg/kg/injection, schedule: Q01DX001 (ip), vehicle: saline with Tween-80 249 % of control | endpoint: mean survival time, dose: 250.0 mg/kg/injection, schedule: Q01DX001 (ip), vehicle: other 175 % of control and 210 % of control and 234 % of control | endpoint: mean survival time, dose: 337.0 mg/kg/injection, schedule: Q01DX001 (ip), vehicle: saline with Tween-80 172 % of control | [3] 156 % of control | endpoint: median survival time, dose: 75.0 mg/kg/injection, schedule: Q01DX001 (ip), vehicle: saline 288 % of control | endpoint: median survival time, dose: 150.0 mg/kg/injection, schedule: Q01DX001 (ip), vehicle: saline 288 % of control

CC(=O)N1C(CO)C(O)C(O)C1n1cnc2c(N)ncnc21 (centres undefined)
inactive: [1] 106 % of control | [2] 96 % of control | [3] 96 % of control

Cc1cc(C)c(NC(=S)NC(=O)/C=C/c2ccccc2)c(C)c1
inactive: endpoint: mean survival time, dose: 100.0 mg/kg/injection, schedule: Q01DX001 (ip), vehicle: saline with Tween-80 100 % of control | endpoint: mean survival time, dose: 100.0 mg/kg/injection, schedule: Q01DX009 (ip), vehicle: saline with Tween-80 97 % of control and 89 % of control | endpoint: mean survival time, dose: 100.0 mg/kg/injection, schedule: Q04DX002 (ip), vehicle: saline with Tween-80 101 % of control | endpoint: mean survival time, dose: 100.0 mg/kg/injection, schedule: Q04DX003 (ip), vehicle: saline with Tween-80 92 % of control | endpoint: mean survival time, dose: 200.0 mg/kg/injection, schedule: Q01DX001 (ip), vehicle: saline with Tween-80 92 % of control | endpoint: mean survival time, dose: 200.0 mg/kg/injection, schedule: Q01DX009 (ip), vehicle: saline with Tween-80 101 % of control and 107 % of control | endpoint: mean survival time, dose: 200.0 mg/kg/injection, schedule: Q04DX002 (ip), vehicle: saline with Tween-80 104 % of control | endpoint: mean survival time, dose: 200.0 mg/kg/injection, schedule: Q04DX003 (ip), vehicle: saline with Tween-80 92 % of control | endpoint: mean survival time, dose: 400.0 mg/kg/injection, schedule: Q01DX001 (ip), vehicle: saline with Tween-80 97 % of control | endpoint: mean survival time, dose: 400.0 mg/kg/injection, schedule: Q01DX009 (ip), vehicle: saline with Tween-80 92 % of control and 96 % of control | endpoint: mean survival time, dose: 400.0 mg/kg/injection, schedule: Q04DX002 (ip), vehicle: saline with Tween-80 87 % of control | endpoint: mean survival time, dose: 400.0 mg/kg/injection, schedule: Q04DX003 (ip), vehicle: saline with Tween-80 91 % of control
